Reference: patent US9777002B2, “Inhibitors of the renal outer medullary potassium channel” (Merck Sharp & Dohme Corp., priority 2012, dated 2017)

Molecular target: T1, hROMK (hKir1.1) (Homo sapiens, UniProt P48048)
T1 construct: expressed in transfected cells
T1 sequence (P48048 1-391): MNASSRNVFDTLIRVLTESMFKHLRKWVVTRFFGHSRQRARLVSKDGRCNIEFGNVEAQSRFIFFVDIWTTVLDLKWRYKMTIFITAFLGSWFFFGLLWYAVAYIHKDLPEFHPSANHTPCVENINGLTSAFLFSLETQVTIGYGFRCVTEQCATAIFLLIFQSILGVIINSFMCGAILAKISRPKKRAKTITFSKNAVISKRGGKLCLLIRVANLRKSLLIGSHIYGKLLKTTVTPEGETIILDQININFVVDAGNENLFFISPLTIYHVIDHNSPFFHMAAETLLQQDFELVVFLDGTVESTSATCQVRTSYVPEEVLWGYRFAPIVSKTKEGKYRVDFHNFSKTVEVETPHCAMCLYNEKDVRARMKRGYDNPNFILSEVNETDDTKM
Assay: Thallium Flux Assay
Assay type: cell-based
Details: HEK293 cells stably expressing hROMK (hKir1.1)
Method: Cell Culture Conditions—HEK293 cells stably expressing hROMK (hKir1.1) were grown at 37° C. in a 10% CO2 humidified incubator in complete growth media: Dulbecco's Modified Eagle Medium supplemented with non-essential amino acids, Penicillin/Streptomycin/Glutamine, G418 and FBS. At >80% confluency, aspirate the media from the flask and rinse with 10 mL Calcium/Magnesium-free PBS. Add 5 mL of 1× trypsin (prepared in Ca/Mg Free PBS) to T-225 flask and return flask to 37° C./CO2 incubator for 2-3 minutes. To dislodge the cell, gently bang the side of the flask with your hand. Triturate the cells completely and then transfer the cells to 25 mL complete media. Centrifuge at 1,500 rpm for 6 min followed by resuspension in complete growth media and determine cell concentration. For typical re-seeding, 4E6 cells/T-225 flask will attain >80% confluency in 4 days. Under ideal growth conditions and appropriate tissue culture practices, this cell line is stable for 40-45 passages.
FluxOR Kit Components (Invitrogen F10017)
• FluxOR™ Reagent (Component A) • FluxOR™ Assay Buffer (Component B)—10× Concentrate • PowerLoad™ Concentrate (Component C)—100× Concentrate • Probenecid (Component D)—Lyophilized sample is kept at −20° C. Water soluble, 100× after solubilization in 1 mL water. Store at 4° C. • FluxOR™ Chloride-free Buffer (Component E)—5× Concentrate • Potassium sulfate (K2SO4) Concentrate (Component F)—125 mM in water. Store at 4° C. • Thallium sulfate (Tl2SO4) Concentrate (Component G)—50 mM in water. Store at 4° C. • DMSO (dimethyl sulfoxide, Component H)—1 mL (100%) Reagent Preparation: FluxOR Working Solutions • 1000× FluxOR™ Reagent: Reconstitute a vial of component A in 100 μl DMSO; Mix well; Store 10 μl aliquots at −20° C. • 1× FluxOR™ Assay Buffer: Dilute Component B 10-fold with water; Adjust pH to 7.4 with Hepes/NaOH; Filter and store at 4° C. • Probenecid/Assay Buffer: 100 mL of 1× FluxOR™ Assay Buffer; 1 mL of reconstituted component D; Store at 4° C. • Loading Buffer (per microplate): 10 μl 1000× FluxOR™ Reagent; 100 μl component C; 10 mL Probenecid/Assay Buffer • Compound Buffer (per microplate): 20 mL Probenecid/Assay Buffer; 0.3 mM ouabain (10 mM ouabain in water can be stored in amber bottle/aluminum foil at room temperature); Test compound • 1× FluxOR™ Chloride-Free Buffer: Prepare 1× working solution in water. Can be stored at room temperature • Stimulant Buffer (prepared at 5× final concentration in 1× FluxOR™Chloride-Free Buffer): 7.5 mM Thallium sulfate and 0.75 mM Potassium sulfate (to give a final assay concentration of 3 mM Thallium/0.3 mM Potassium). Store at 4° C. when not in use. If kept sterile, this solution is good for months.
Assay Protocol—The ROMK channel functional thallium flux assay is performed in 384 wells, using the FLIPR-Tetra instrument. HEK-hKir1.1 cells are seeded in Poly-D-Lysine microplates and kept in a 37° C.-10% CO2 incubator overnight. On the day of the experiment, the growth media is replaced with the FluxOR™ reagent loading buffer and incubated, protected from light, at ambient temperature (23-25° C.) for 90 min. The loading buffer is replaced with assay buffer± test compound followed by 30 min incubation at ambient temperature, where the Thallium/Potassium stimulant is added to the microplate.
• 1. Seed HEK-hKir1.1 cells (50 μl at 20,000 cells/well) in 384-well PDL coated Microplates • 2. Allow cells to adhere overnight in humidified 37° C./10% CO2 incubator • 3. Completely remove cell growth media from microplate and replace with 25 μl loading buffer • 4. Incubate Microplate at room temperature, protected form light, for 90 min • 5. Remove loading buffer and replace with 25 μl 1× Assay Buffer±test compound. • 6. Incubate microplate at room temperature, protected from light, for 30 min • 7. At FLIPR-Tetra 384: Add stimulant (Thallium/Potassium) solution to microplate and monitor fluorescence. Excitation=400 nm, Emission=460 & 580 nm. Collect data for ˜10 min. […]

IC50 [nM] | SMILES
450 | Cc1c([C@@H](O)CN2CCC(NC(=O)c3cccc(-n4cnnn4)c3)CC2)ccc2c1COC2=O [Example 36, (R)-N-(1-(2-Hydroxy-2-(4-methyl-1-oxo-1,3-dihydroisobenzofuran-5-yl)ethyl)piperidin-4-yl)-3-(1H-tetrazol-1-yl)benzamide]
100 | Cc1c([C@@H](O)CN2CCC(NC(=O)c3ccc(-n4cccn4)cc3)CC2)ccc2c1COC2=O [Example 37, (R)-N-(1-(2-Hydroxy-2-(4-methyl-1-oxo-1,3-dihydroisobenzofuran-5-yl)ethyl)piperidin-4-yl)-4-(1H-pyrazol-1-yl)benzamide]
1000 | Cc1c([C@@H](O)CN2CC[C@@H](NC(=O)c3ccc(C#N)cn3)[C@H](F)C2)ccc2c1COC2=O [Example 38, 5-Cyano-N-((trans)-3-fluoro-1-((R)-2-hydroxy-2-(4-methyl-1-oxo-1,3-dihydroisobenzofuran-5-yl)ethyl)piperidin-4-yl)picolinamide]
310 | Cc1c([C@@H](O)CN2CCC(NC(=O)c3ccc(-c4cc[nH]n4)cc3)CC2)ccc2c1COC2=O [Example 39, (R)-N-(1-(2-Hydroxy-2-(4-methyl-1-oxo-1,3-dihydroisobenzofuran-5-yl)ethyl)piperidin-4-yl)-4-(1H-pyrazol-3-yl)benzamide]
70 | Cc1nc(C(=O)NC2CCN(C[C@H](O)c3ccc4c(c3C)COC4=O)CC2)ccc1C#N [Example 41, (R)-5-Cyano-N-(1-(2-hydroxy-2-(4-methyl-1-oxo-1,3-dihydroisobenzofuran-5-yl)ethyl)piperidin-4-yl)-6-methylpicolinamide]
100 | Cc1c([C@@H](O)CN2CCC(NC(=O)c3ncc(C#N)c4ccccc34)CC2)ccc2c1COC2=O [Example 42, (R)-4-Cyano-N-(1-(2-hydroxy-2-(4-methyl-1-oxo-1,3-dihydroisobenzofuran-5-yl)ethyl)piperidin-4-yl)isoquinoline-1-carboxamide]
450 | Cc1c([C@@H](O)CN2CCC(NC(=O)c3ccc(C#N)cc3F)CC2)ccc2c1COC2=O [Example 45, (R)-4-Cyano-2-fluoro-N-(1-(2-hydroxy-2-(4-methyl-1-oxo-1,3-dihydroisobenzofuran-5-yl)ethyl)piperidin-4-yl)benzamide]
150 | Cc1c([C@@H](O)CN2CCC(NC(=O)c3ccc(-n4cnnn4)nc3)CC2)ccc2c1COC2=O [Example 49, (R)-N-(1-(2-Hydroxy-2-(4-methyl-1-oxo-1,3-dihydroisobenzofuran-5-yl)ethyl)piperidin-4-yl)-6-(1H-tetrazol-1-yl)nicotinamide]
390 | Cc1c([C@@H](O)CN2CCC(C)(NC(=O)c3ccc(-n4cnnn4)nc3)CC2)ccc2c1COC2=O [Example 51, (R)-N-(1-(2-Hydroxy-2-(4-methyl-1-oxo-1,3-dihydroisobenzofuran-5-yl)ethyl)-4-methylpiperidin-4-yl)-6-(1H-tetrazol-1-yl)nicotinamide]
190 | Cc1c([C@@H](O)CN2CCC(NC(=O)c3ccc(-n4cnnn4)cn3)CC2)ccc2c1COC2=O [Example 53, (R)-N-(1-(2-Hydroxy-2-(4-methyl-1-oxo-1,3-dihydroisobenzofuran-5-yl)ethyl)piperidin-4-yl)-5-(1H-tetrazol-1-yl)picolinamide]
530 | Cc1c([C@@H](O)CN2CCC3(CC2)CCN3C(=O)c2ccc(-n3cnnn3)cn2)ccc2c1COC2=O [Example 55, (R)-5-(2-(1-(5-(1H-Tetrazol-1-yl)picolinoyl)-1,7-diazaspiro[3.5]nonan-7-yl)-1-hydroxyethyl)-4-methylisobenzofuran-1(3H)-one]
710 | Cc1c([C@@H](O)CN2CC3C(C2)C3NC(=O)c2ccc(-n3cnnn3)cn2)ccc2c1COC2=O (stereo partly drawn) [Example 56, N-(3-((R)-2-Hydroxy-2-(4-methyl-1-oxo-1,3-dihydroisobenzofuran-5-yl)ethyl)-3-azabicyclo[3.1.0]hexan-6-yl)-5-(1H-tetrazol-1-yl)picolinamide]
320 | COc1cc(C(=O)NC2CCN(C[C@H](O)c3ccc4c(c3C)COC4=O)CC2)ccc1C#N [Example 57, (R)-4-Cyano-N-(1-(2-hydroxy-2-(4-methyl-1-oxo-1,3-dihydroisobenzofuran-5-yl)ethyl)piperidin-4-yl)-3-methoxybenzamide]
90 | Cc1cc(C(=O)NC2CCN(C[C@H](O)c3ccc4c(c3C)COC4=O)CC2)ncc1-n1cnnn1 [Example 59, (R)-N-(1-(2-Hydroxy-2-(4-methyl-1-oxo-1,3-dihydroisobenzofuran-5-yl)ethyl)piperidin-4-yl)-4-methyl-5-(1H-tetrazol-1-yl)picolinamide]
180 | Cc1c([C@@H](O)CN2CCC(C)(NC(=O)c3ccc(-n4cnnn4)cn3)CC2)ccc2c1COC2=O [Example 60, (R)-N-(1-(2-Hydroxy-2-(4-methyl-1-oxo-1,3-dihydroisobenzofuran-5-yl)ethyl)-4-methylpiperidin-4-yl)-5-(1H-tetrazol-1-yl)picolinamide]
230 | Cc1c([C@@H](O)CN2CC[C@H](NC(=O)c3ccc(-n4cnnn4)cn3)C2)ccc2c1COC2=O [Example 61, N-((S)-1-((R)-2-Hydroxy-2-(4-methyl-1-oxo-1,3-dihydroisobenzofuran-5-yl)ethyl)pyrrolidin-3-yl)-5-(1H-tetrazol-1-yl)picolinamide]
370 | Cc1c([C@@H](O)CN2CC[C@@H](NC(=O)c3ccc(-n4cnnn4)cn3)C2)ccc2c1COC2=O [Example 62, N-((R)-1-((R)-2-Hydroxy-2-(4-methyl-1-oxo-1,3-dihydroisobenzofuran-5-yl)ethyl)pyrrolidin-3-yl)-5-(1H-tetrazol-1-yl)picolinamide]
860 | Cc1cc(C(=O)NC2(C)CCN(C[C@H](O)c3ccc4c(c3C)COC4=O)CC2)ncc1-n1cnnn1 [Example 63, (R)-N-(1-(2-Hydroxy-2-(4-methyl-1-oxo-1,3-dihydroisobenzofuran-5-yl)ethyl)-4-methylpiperidin-4-yl)-4-methyl-5-(1H-tetrazol-1-yl)picolinamide]
470 | Cc1c([C@@H](O)CN2CCC(NC(=O)c3cnc(-n4cnnn4)cn3)CC2)ccc2c1COC2=O [Example 64, (R)-N-(1-(2-Hydroxy-2-(4-methyl-1-oxo-1,3-dihydroisobenzofuran-5-yl)ethyl)piperidin-4-yl)-5-(1H-tetrazol-1-yl)pyrazine-2-carboxamide]
110 | Cc1c([C@@H](O)CN2CCC(NC(=O)c3ccc(-n4cnnn4)nn3)CC2)ccc2c1COC2=O [Example 65, (R)-N-(1-(2-Hydroxy-2-(4-methyl-1-oxo-1,3-dihydroisobenzofuran-5-yl)ethyl)piperidin-4-yl)-6-(1H-tetrazol-1-yl)pyridazine-3-carboxamide]
